# Results: ChEMBL document CHEMBL5579813, “2-(3-Indolyl)acetamides and their oxazoline analogues: Anticancer SAR study” (Bioorg Med Chem Lett, 2024)
# Experiments:
# BE(2)-C [1] = assay: Antiproliferative activity against human BE2C cells assessed as reduction in cell growth incubated for 96 hrs by MTT assay; format: functional, cell-based
# BE(2)-C [2] = assay: Antiproliferative activity against human BE2C cells assessed as residual cell viability at 25 uM incubated for 96 hrs by MTT assay relative to control; format: functional
# [3] = Antiproliferative activity against human Kelly cells assessed as reduction in cell growth incubated for 96 hrs by MTT assay; format: functional, cell-based
# SW-620 = assay: Antiproliferative activity against human SW620 cells assessed as reduction in cell growth incubated for 96 hrs by MTT assay; format: functional, cell-based; settings: SW-620, 96 h
# [4] = Antiproliferative activity against human fibroblasts assessed as reduction in cell growth incubated for 96 hrs by MTT assay; format: toxicity, cell-based, Fibroblast
Compound,IC50 (BE(2)-C [1]) [µM],Residual cell viability (BE(2)-C [2]) [%],further results
NC(=O)C(c1ccccc1)c1c(-c2ccc3ccccc3c2)[nH]c2ccccc12 (stereo not drawn),8.46,19.2,–
NC(=O)C(c1ccccc1)c1c(-c2ccc3ccccc3c2)[nH]c2ccc(Cl)cc12 (stereo not drawn),–,144,–
COc1ccc(C(C(N)=O)c2c(-c3ccccc3)[nH]c3ccccc23)cc1 (stereo not drawn),–,129,–
COc1ccc(C(C(N)=O)c2c(-c3ccccc3)[nH]c3ccccc23)cc1OC (stereo not drawn),–,16.1,–
NC(=O)C(c1ccccc1)c1c(-c2ccccc2)[nH]c2ccccc12 (stereo not drawn),–,185,–
CC1(C)COC(C(c2ccccc2)c2c(-c3ccccc3)[nH]c3ccccc23)=N1 (stereo not drawn),–,13.3,–
COc1ccc(-c2[nH]c3ccccc3c2C(C(N)=O)c2ccccc2)cc1 (stereo not drawn),–,100,–
CCc1ccc(C(C2=NC(C)(C)CO2)c2c(-c3ccc(C)c(C)c3)[nH]c3ccccc23)cc1 (stereo not drawn),–,16.5,–
COc1ccc(C(C(N)=O)c2c(-c3ccc4ccccc4c3)[nH]c3ccccc23)cc1 (stereo not drawn),0.47,13.7,–
COc1ccc(C(C2=NC(C)(C)CO2)c2c(-c3ccc(C)cc3)[nH]c3ccccc23)cc1 (stereo not drawn),9.4,17.2,–
COc1ccc(-c2[nH]c3ccccc3c2C(C(N)=O)c2ccc(C)cc2)cc1 (stereo not drawn),4.65,87,–
CC(C)c1ccc(C(C(N)=O)c2c(-c3ccccc3)[nH]c3ccccc23)cc1 (stereo not drawn),24,88,–
CC1(C)COC(C(c2ccccc2F)c2c(-c3ccc4c(c3)CCCC4)[nH]c3ccccc23)=N1 (stereo not drawn),88,25.6,–
CCc1ccc(C(C2=NC(C)(C)CO2)c2c(-c3ccc4c(c3)CCCC4)[nH]c3ccccc23)cc1 (stereo not drawn),–,33.3,–
NC(=O)C(c1ccc(Cl)cc1)c1c(-c2ccc3ccccc3c2)[nH]c2ccccc12 (stereo not drawn),0.79,13.9,–
COc1ccccc1C(C1=NC(C)(C)CO1)c1c(-c2ccc3c(c2)CCCC3)[nH]c2ccccc12 (stereo not drawn),20,42,–
NC(=O)C(c1ccccc1Cl)c1c(-c2ccc3ccccc3c2)[nH]c2ccccc12 (stereo not drawn),0.96,132,–
CCc1ccc(C(C2=NC(C)(C)CO2)c2c(-c3ccc(C)cc3)[nH]c3ccccc23)cc1 (stereo not drawn),–,189,–
NC(=O)C(c1cccc(Cl)c1)c1c(-c2ccc3ccccc3c2)[nH]c2ccccc12 (stereo not drawn),–,142,–

Compound,IC50 (BE(2)-C [1]) [µM],Residual cell viability (BE(2)-C [2]) [%],further results
COc1ccc(C(C2=NC(C)(C)CO2)c2c(-c3ccc(C)c(C)c3)[nH]c3ccccc23)cc1 (stereo not drawn),–,135,–
Cc1ccc(C(C(N)=O)c2c(-c3ccc4ccccc4c3)[nH]c3ccccc23)cc1 (stereo not drawn),0.29,14.5,IC50 [3]: 0.93 µM; IC50 (SW-620): 0.37 µM; IC50 at 96 h [4]: 75.7 µM
CC1(C)COC(C(c2ccccc2)c2c(-c3ccc4ccccc4c3)[nH]c3ccccc23)=N1 (stereo not drawn),–,128,–
NC(=O)C(c1ccc(Cl)cc1)c1c(-c2ccccc2)[nH]c2ccccc12 (stereo not drawn),0.99,14.1,–
Cc1ccc(-c2[nH]c3ccccc3c2C(C2=NC(C)(C)CO2)c2ccccc2)cc1 (stereo not drawn),–,134,–
COc1ccc(-c2[nH]c3ccccc3c2C(C(N)=O)c2ccccc2OC)cc1 (stereo not drawn),7.34,178,–
NC(=O)C(c1ccccc1)c1c(-c2ccccc2)[nH]c2ccc(Cl)cc12 (stereo not drawn),14,136,–
CC1(C)COC(C(c2ccccc2Cl)c2c(-c3ccc4c(c3)CCCC4)[nH]c3ccccc23)=N1 (stereo not drawn),6.1,34.3,–
COc1ccc(-c2[nH]c3ccccc3c2C(C(N)=O)c2ccccc2OC)cc1OC (stereo not drawn),–,169,–
COc1ccc(C(C(N)=O)c2c(-c3ccc4ccccc4c3)[nH]c3ccccc23)cc1OC (stereo not drawn),0.25,49.2,IC50 [3]: 0.23 µM; IC50 (SW-620): 1.71 µM; IC50 at 96 h [4]: 192 µM
NC(=O)C(c1ccccc1Cl)c1c(-c2ccccc2)[nH]c2ccccc12 (stereo not drawn),–,13.9,–
Cc1ccc(-c2[nH]c3ccccc3c2C(C(N)=O)c2ccccc2)cc1 (stereo not drawn),–,159,–
Cc1ccc(C(C(N)=O)c2c(-c3ccccc3)[nH]c3ccccc23)cc1 (stereo not drawn),–,151,–
NC(=O)C(c1cccc(Cl)c1)c1c(-c2ccccc2)[nH]c2ccccc12 (stereo not drawn),–,14.1,–
COc1ccccc1C(C(N)=O)c1c(-c2ccccc2)[nH]c2ccccc12 (stereo not drawn),–,147,–
CC1(C)COC(C(c2ccc(Cl)cc2)c2c(-c3ccc4c(c3)CCCC4)[nH]c3ccccc23)=N1 (stereo not drawn),18.8,145,–
COc1ccccc1C(C(N)=O)c1c(-c2ccc3ccccc3c2)[nH]c2ccccc12 (stereo not drawn),0.28,42.4,IC50 [3]: 1.33 µM; IC50 (SW-620): 1.41 µM; IC50 at 96 h [4]: 155 µM
CC1=C(/C=C/C(C)=C/C=C/C(C)=C/C(=O)O)C(C)(C)CCC1 [TRETINOIN],6.7,–,–
